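In this assay, cells in 96-well plates receive the compound at five concentrations for 48 hours. Endpoints are linearly interpolated between the surrounding concentrations. Abbreviation: GI50, concentration required for 50% inhibition of growth.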 The source made the active and inactive calls. No stated cut-off is given here; in the data, active = GI50 up to about 1.1 µM and inactive = higher.
Columns and labels:
Assay in all cases: growth of human tumour cells (NCI), 48 h
COLO 205 = test system: COLO 205
NCI-H226 = test system: NCI-H226
DLD-1 = test system: DLD-1
EKVX = test system: EKVX
CCRF-CEM = test system: CCRF-CEM
UACC-62 = test system: UACC-62
KM12 = test system: KM12
U-251 = test system: U-251
SK-OV-3 = test system: SK-OV-3
HCC 2998 = test system: HCC 2998
SF-295 = test system: SF-295
HCT-15 = test system: HCT-15
A549 = test system: A549
SF-268 = test system: SF-268
XF498 = test system: XF498
LOX IMVI = test system: LOX IMVI
RPMI-8226 = test system: RPMI-8226
UACC-257 = test system: UACC-257
A498 = test system: A498
SNB-75 = test system: SNB-75
RXF 393 = test system: RXF 393
NCI-H522 = test system: NCI-H522
HT-29 = test system: HT-29
Malme-3M = test system: Malme-3M
IGROV-1 = test system: IGROV-1
HCT-116 = test system: HCT-116
SW-620 = test system: SW-620
K562 = test system: K562
SK-MEL-2 = test system: SK-MEL-2
MOLT-4 = test system: MOLT-4
OVCAR-5 = test system: OVCAR-5
LXFL 529 = test system: LXFL 529
TK-10 = test system: TK-10
SK-MEL-28 = test system: SK-MEL-28
DMS-114 = test system: DMS-114
DMS-273 = test system: DMS-273
HL-60 = test system: HL-60
KM-20L2 = test system: KM-20L2
UO-31 = test system: UO-31
HOP-62 = test system: HOP-62
ACHN = test system: ACHN
SR = test system: SR
SN12C = test system: SN12C
OVCAR-3 = test system: OVCAR-3
SF-539 = test system: SF-539
OVCAR-8 = test system: OVCAR-8
M14 = test system: M14
786-0 = test system: 786-0
HOP-92 = test system: HOP-92
SNB-78 = test system: SNB-78
M19-MEL = test system: M19-MEL
NCI-H23 = test system: NCI-H23
SK-MEL-5 = test system: SK-MEL-5
SNB-19 = test system: SNB-19
HOP-18 = test system: HOP-18
OVCAR-4 = test system: OVCAR-4
NCI-H460 = test system: NCI-H460

Q: Which GI50 (COLO 205) does the source give for O=C(C(O)c1cn(Cc2ccccc2)c2ccccc12)N1CCCCC1 (stereo not given) here?
A: > 100 µM (inactive)

Q: What about the GI50 (NCI-H226) of the same compound?
A: 34.4 µM (inactive)

Q: And the GI50 (DLD-1)?
A: > 100 µM (inactive)

Q: And the GI50 (EKVX)?
A: 54.6 µM (inactive)

Q: What about the GI50 (CCRF-CEM) of the same compound?
A: 67.1 µM (inactive)

Q: What about the GI50 (UACC-62) of the same compound?
A: 95.1 µM (inactive)

Q: And the GI50 (KM12)?
A: > 100 µM (inactive)

Q: And the GI50 (U-251)?
A: > 10 µM (inactive)

Q: And the GI50 (SK-OV-3)?
A: 72.8 µM (inactive)

Q: And the GI50 (HCC 2998)?
A: > 100 µM (inactive)

Q: And the GI50 (SF-295)?
A: 76 µM (inactive)

Q: And the GI50 (HCT-15)?
A: 76.4 µM

Q: What about the GI50 (A549) of the same compound?
A: 45 µM (inactive)

Q: What about the GI50 (SF-268) of the same compound?
A: 83.2 µM (inactive)

Q: What about the GI50 (XF498) of the same compound?
A: 93.1 µM (inactive)

Q: What about the GI50 (LOX IMVI) of the same compound?
A: > 100 µM (inactive)

Q: What about the GI50 (RPMI-8226) of the same compound?
A: > 100 µM (inactive)

Q: What about the GI50 (UACC-257) of the same compound?
A: 48.9 µM (inactive)

Q: And the GI50 (A498)?
A: > 100 µM (inactive)

Q: And the GI50 (SNB-75)?
A: > 100 µM (inactive)

Q: And the GI50 (RXF 393)?
A: > 10 µM (inactive)

Q: And the GI50 (NCI-H522)?
A: 44.4 µM (inactive)

Q: What about the GI50 (HT-29) of the same compound?
A: > 100 µM (inactive)

Q: And the GI50 (Malme-3M)?
A: > 100 µM (inactive)

Q: What about the GI50 (IGROV-1) of the same compound?
A: 30.4 µM (inactive)

Q: What about the GI50 (HCT-116) of the same compound?
A: > 100 µM (inactive)

Q: What about the GI50 (SW-620) of the same compound?
A: > 100 µM (inactive)

Q: And the GI50 (K562)?
A: 30.2 µM (inactive)

Q: What about the GI50 (SK-MEL-2) of the same compound?
A: > 100 µM (inactive)

Q: And the GI50 (MOLT-4)?
A: 39.9 µM (inactive)

Q: And the GI50 (OVCAR-5)?
A: > 100 µM (inactive)

Q: What about the GI50 (LXFL 529) of the same compound?
A: 79.6 µM (inactive)

Q: And the GI50 (TK-10)?
A: > 10 µM (inactive)

Q: And the GI50 (SK-MEL-28)?
A: > 10 µM (inactive)

Q: What about the GI50 (DMS-114) of the same compound?
A: > 100 µM (inactive)

Q: What about the GI50 (DMS-273) of the same compound?
A: > 100 µM (inactive)

Q: And the GI50 (HL-60)?
A: > 100 µM (inactive)

Q: What about the GI50 (KM-20L2) of the same compound?
A: 38.8 µM (inactive)

Q: And the GI50 (UO-31)?
A: > 100 µM (inactive)

Q: What about the GI50 (HOP-62) of the same compound?
A: > 100 µM (inactive)

Q: What about the GI50 (ACHN) of the same compound?
A: 53.5 µM (inactive)

Q: What about the GI50 (SR) of the same compound?
A: > 100 µM (inactive)

Q: What about the GI50 (SN12C) of the same compound?
A: 82.6 µM (inactive)

Q: What about the GI50 (OVCAR-3) of the same compound?
A: 50 µM (inactive)

Q: What about the GI50 (SF-539) of the same compound?
A: > 100 µM (inactive)

Q: And the GI50 (OVCAR-8)?
A: > 100 µM (inactive)

Q: What about the GI50 (M14) of the same compound?
A: > 100 µM (inactive)

Q: And the GI50 (786-0)?
A: > 100 µM (inactive)

Q: And the GI50 (HOP-92)?
A: > 100 µM (inactive)

Q: What about the GI50 (SNB-78) of the same compound?
A: > 10 µM (inactive)

Q: And the GI50 (M19-MEL)?
A: > 100 µM (inactive)

Q: What about the GI50 (NCI-H23) of the same compound?
A: > 10 µM (inactive)

Q: And the GI50 (SK-MEL-5)?
A: 30.1 µM (inactive)

Q: And the GI50 (SNB-19)?
A: > 100 µM (inactive)

Q: And the GI50 (HOP-18)?
A: 24.1 µM (inactive)

Q: What does the source list for COc1cc2c(cc1OC)C(O)[C@H](Br)C(C)(C)O2 (stereo not given in full)?
A: GI50 (COLO 205): > 100 µM (inactive); GI50 (NCI-H226): > 100 µM (inactive); GI50 (OVCAR-4): > 100 µM (inactive); GI50 (DLD-1): > 100 µM (inactive); GI50 (EKVX): > 100 µM (inactive); GI50 (CCRF-CEM): > 100 µM (inactive); GI50 (UACC-62): > 100 µM (inactive); GI50 (KM12): > 100 µM (inactive); GI50 (U-251): > 100 µM (inactive); GI50 (SK-OV-3): > 100 µM (inactive); GI50 (HCC 2998): > 100 µM (inactive); GI50 (SF-295): > 100 µM (inactive); GI50 (HCT-15): > 100 µM; GI50 (A549): > 100 µM (inactive); GI50 (SF-268): > 100 µM (inactive); GI50 (XF498): > 100 µM (inactive); GI50 (LOX IMVI): > 100 µM (inactive); GI50 (RPMI-8226): > 100 µM (inactive); GI50 (UACC-257): > 100 µM (inactive); GI50 (SNB-75): 84.3 µM (inactive); GI50 (RXF 393): > 100 µM (inactive); GI50 (NCI-H522): > 100 µM (inactive); GI50 (HT-29): > 100 µM (inactive); GI50 (Malme-3M): > 100 µM (inactive); GI50 (IGROV-1): > 100 µM (inactive); GI50 (NCI-H460): > 100 µM (inactive); GI50 (HCT-116): > 100 µM (inactive); GI50 (SW-620): > 100 µM (inactive); GI50 (K562): > 100 µM (inactive); GI50 (SK-MEL-2): > 100 µM (inactive); GI50 (MOLT-4): > 100 µM (inactive); GI50 (OVCAR-5): > 100 µM (inactive); GI50 (LXFL 529): > 100 µM (inactive); GI50 (TK-10): > 100 µM (inactive); GI50 (SK-MEL-28): > 100 µM (inactive); GI50 (DMS-114): > 100 µM (inactive); GI50 (DMS-273): > 100 µM (inactive); GI50 (HL-60): > 100 µM (inactive); GI50 (KM-20L2): > 100 µM (inactive); GI50 (UO-31): > 100 µM (inactive); GI50 (HOP-62): > 100 µM (inactive); GI50 (ACHN): > 100 µM (inactive); GI50 (SR): > 100 µM (inactive); GI50 (SN12C): > 100 µM (inactive); GI50 (OVCAR-3): > 100 µM (inactive); GI50 (SF-539): > 100 µM (inactive); GI50 (OVCAR-8): > 100 µM (inactive); GI50 (M14): > 100 µM (inactive); GI50 (786-0): > 100 µM (inactive); GI50 (HOP-92): > 100 µM (inactive); GI50 (M19-MEL): > 100 µM (inactive); GI50 (NCI-H23): > 100 µM (inactive); GI50 (SK-MEL-5): > 100 µM (inactive); GI50 (SNB-19): > 100 µM (inactive); GI50 (HOP-18): > 100 µM (inactive)
